This data set in a line: gradient 5% acetonitrile 3 min, to 50% in 2 min, to 85% in 15 min, held 3 min, 100 µL/min. The conditions noted are these: column: Zorbax Extend-C18 2.1 x 50 mm; eluents: water / acetonitrile, 0.1% formic acid. The essentials:
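Each retention time is based on an adduct peak selected computationally and verified by manual inspection. Measurements used HPLC–quadrupole time-of-flight mass spectrometry in positive and negative ionization mode on mixtures of ~100 pure standards. Chromatography ran on a Zorbax Extend-C18 column (2.1 × 50 mm, 1.8 μm) at 100 μL/min with water and acetonitrile, each containing 0.1% formic acid, and dead and dwell volumes of 40 μL and 900 μL.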
`CCCN1CCN(C(=O)Cn2nc(C)c3sc(-c4ccccc4)nc3c2=O)CC1` yielded an RP-LC retention time of 623 s.

As to `CN(C(=O)Cc1ccc(Cl)c(Cl)c1)[C@@H](CN1CCCC1)c1ccccc1`, the RP-LC retention time was 718 s.

Take `Cc1cc2c(cc1C)[n+](=O)c(C(=O)/C=C/c1ccccc1[N+](=O)[O-])c(C)n2[O-]`: the RP-LC retention time worked out at 806 s.

For `O=c1cc(-c2ccccc2)nc2n1CCN2Cc1ccncc1`, the RP-LC retention time worked out at 589 s.

`CCc1nc2cc(-c3noc(CCc4ccccc4OC)n3)ccc2o1`: the RP-LC retention time came out at 1190 s.

Consider `Cc1c(CN2CCSCC2)nnn1-c1ccccc1`, for which the RP-LC retention time turned out to be 583 s.

In turn, `CC(NC(=O)c1ccco1)c1nc(-c2ccc(N3CCCCC3)cc2)no1` (centres undefined) gave an RP-LC retention time of 859 s.

The molecule `CCCN(CC1CCOC1)C(=O)Nc1ccc(CC)cc1` (centres undefined) returned an RP-LC retention time of 811 s.

`CC1=C(c2ccc(C)cc2)S(=O)(=O)N=C1N1CCCN(C(=O)C2CCOC2)CC1` (centres undefined): the RP-LC retention time turned out to be 732 s.

Regarding `Cc1cc(C)cc(NC(=O)Cn2c(-c3cnccn3)nc(C)c(C)c2=O)c1`, the RP-LC retention time amounted to 774 s.

In turn, `CC(C)n1nnc2cc(C(=O)N(C)CC(=O)Nc3ccc(F)c(Cl)c3)ccc21` displayed an RP-LC retention time of 790 s.

Turning to `COC(=O)c1c(N)n(-c2cccc(F)c2)c2nc3ccccc3nc12`, the RP-LC retention time amounted to 685 s.

Take `CCOc1ccc(CC(=O)NC2CCN(c3cc(-c4ccccc4)[nH]n3)C2)cc1OCC` (centres undefined): the RP-LC retention time worked out at 721 s.

As to `O=S(=O)(Cc1ccccc1)N1CCCCC1c1noc(COCC2CC2)n1` (centres undefined), the RP-LC retention time came to 1050 s.

The molecule `Oc1ccc2c3c1O[C@H]1c4[nH]c5ccccc5c4C[C@@]4(O)C(C2)N(CC2CC2)CC[C@]314` registered an RP-LC retention time of 717 s.

`Cc1nnc2cc(N3CCN(C(=O)Nc4ccccc4F)CC3)cnn12` had an RP-LC retention time of 542 s.

In turn, `COc1ccc(NC(=O)N2CCN(c3cc(C)nc(N4CCCC4)n3)CC2)c(OC)c1` displayed an RP-LC retention time of 646 s.

The molecule `Clc1ccc(-c2nc(N3CCN(C4CCCCC4)CC3)c3ccccc3n2)cc1` returned an RP-LC retention time of 562 s.

Consider `O=C(Nc1cc(-c2ccccn2)no1)c1ccccc1F`, for which the RP-LC retention time turned out to be 774 s.

Molecule `O=C(NC1CC1)c1ccc(OCC2CCN(C(=O)Cc3cccs3)CC2)cc1` had an RP-LC retention time of 780 s.

As to `Cc1ccc(C)c(C(=O)N2CCC(c3cc4n(n3)CCCN(C)C4=O)CC2)c1`, the RP-LC retention time was 690 s.

`CCCNC(=O)C1CCCN(c2nc3ncn(CC(=O)Nc4cc(F)cc(F)c4)c(=O)c3s2)C1` (centres undefined): the RP-LC retention time came to 744 s.

Regarding `COC(=O)c1ccc2c(=O)n(-c3ccc4c(c3)OCO4)c(N3CCN(c4ccccn4)CC3)nc2c1`, the RP-LC retention time was 660 s.

In turn, `Cc1cc(NS(=O)(=O)c2ccc3c(c2)CCCC(=O)N3)ccc1Br` showed an RP-LC retention time of 774 s.

As to `CCOc1cccc(-c2noc(CN3C(=O)C(C)Oc4ccccc43)n2)c1` (centres undefined), the RP-LC retention time is 1140 s.

With `CN1CCN(CCNC(=O)CCc2c(-c3ccc(Br)cc3)nc3ccccn23)CC1`, the RP-LC retention time was found to be 543 s.

As for `CCOC(=O)c1c(S(=O)(=O)N2CCC(C(=O)Nc3ccccc3)CC2)c(C)n(C)c1C`, the RP-LC retention time was 834 s.

For `CC1CCN(C(=O)c2ccc3ccnc(N4CCN(c5ccc(Cl)cc5)CC4)c3c2)CC1`, the RP-LC retention time was 982 s.

The molecule `Cc1ccc(NC(=O)NCCc2cn(CC(C)C)c3ncccc23)cc1Cl` gave an RP-LC retention time of 941 s.

`Cc1nnc2ccc(N3CCOCC3)nn12` gave an RP-LC retention time of 600 s.

The molecule `Cc1ccc(-c2nnc(Cc3nc(-c4ccccn4)no3)o2)cc1F` gave an RP-LC retention time of 822 s.

`Cc1noc(C)c1CCC(=O)NCCOc1cccc2cccnc12` yielded an RP-LC retention time of 548 s.

In the case of `CC(=O)N1N=C(c2ccccc2NS(C)(=O)=O)CC1c1ccc2ncccc2c1` (centres undefined), the RP-LC retention time stood at 599 s.

`COc1cccc(NC(=O)N2CCC3(CC2)NC(=O)c2ccc(Cl)cc2N3C)c1` displayed an RP-LC retention time of 780 s.

With `CN(C)c1cc(-n2cccn2)ncn1`, the RP-LC retention time was 666 s.

Regarding `Cc1cc(NC(=O)c2ccccc2C(F)(F)F)n(-c2nc(-c3cccs3)cs2)n1`, the RP-LC retention time turned out to be 1250 s.

In the case of `CNCc1ccc(-c2ccc(F)c(Cl)c2)o1`, the RP-LC retention time worked out at 644 s.

In turn, `Cc1ccccc1NC(=O)N1CCC2(C1)C(=O)Nc1ccccc12` (centres undefined) came in with an RP-LC retention time of 727 s.

For `COCC(O)Cn1ccnc1[N+](=O)[O-]` (centres undefined), the RP-LC retention time amounted to 609 s.

On to `COc1ccc(-c2ccc3nc(N4CCC(C(=O)NC(C)C)CC4)sc3n2)cc1`, for which the RP-LC retention time is 926 s.

With `COCc1cc(=O)n(CC(=O)Nc2cc(OC)c(OC)c(OC)c2)c(N2CCOCC2)n1`, the RP-LC retention time is 734 s.

With `O=C1CCc2cc(OCCCCc3nnnn3C3CCCCC3)ccc2N1`, the RP-LC retention time was found to be 880 s.

As to `CCCCn1c(=O)c2ccccc2n(Cc2nc(-c3ccccc3Cl)no2)c1=O`, the RP-LC retention time stood at 1160 s.

Take `COc1ccc(Cl)cc1NC(=O)Cn1c(C)nc2c(sc3nc(-c4ccccc4)ccc32)c1=O`: the RP-LC retention time turned out to be 1180 s.

Regarding `Cc1ccc(C(C)NC(=O)Cn2cc(-c3noc(-c4ccc(F)cc4)n3)nc2C)cc1` (centres undefined), the RP-LC retention time was 907 s.

In the case of `CCc1cccc(C)c1Nc1c(-c2ccc(C(=O)NC(C)C)cc2)nc2cnccn12`, the RP-LC retention time came out at 814 s.

Molecule `COc1ccc(-c2nc(-c3ccc4ncn(C)c4c3)no2)cc1` came in with an RP-LC retention time of 732 s.

In turn, `COc1ccc(-c2nc(C3CC(=O)N(c4ccc(OC)c(OC)c4)C3)no2)c(C)c1` (centres undefined) yielded an RP-LC retention time of 911 s.

For `CCCS(=O)(=O)N1CC(c2nc(CCOc3cccc(C)c3)no2)C1`, the RP-LC retention time amounted to 995 s.

In the case of `CCNC(=O)N1CCc2c([nH]c3ccc(C)cc23)C12C(=O)N(C)c1ccccc12` (centres undefined), the RP-LC retention time worked out at 798 s.

`COc1cccc2c1OC1(C)CC2C(S(=O)(=O)c2ccc(Cl)cc2)C(=O)N1C` (centres undefined) yielded an RP-LC retention time of 938 s.

The molecule `CCOc1ccc(N2CC(c3nc(-c4cccc(C)c4)no3)CC2=O)cc1` (centres undefined) showed an RP-LC retention time of 1050 s.

`Cc1cccc(NC(=O)C2CCN(S(=O)(=O)c3cc(C(=O)N4CCCC4)n(C)c3)CC2)n1` returned an RP-LC retention time of 653 s.

In turn, `Cc1cccc(CNC(=O)C2(C)Oc3cccnc3NC2=O)c1` (centres undefined) returned an RP-LC retention time of 704 s.

On to `O=C(c1ccsc1)N1CCN(c2cc(-c3cccnc3)[nH]n2)CC1`, for which the RP-LC retention time was found to be 584 s.

`Cc1nc(-c2cc(S(=O)(=O)Nc3ccc(F)c(Cl)c3)c(C)s2)cs1` had an RP-LC retention time of 1030 s.

For `Cc1ccnc(C(=O)Nc2ccc(Nc3ccc(-n4nc(C)c(C)c4C)nn3)cc2)n1`, the RP-LC retention time came out at 692 s.

In turn, `COc1ccc2c(c1)CCc1sc(NC(=O)c3ccc(C)cc3)nc1-2` had an RP-LC retention time of 1150 s.

Regarding `CCc1noc(-c2cnc3nc(C)ccc3c2Nc2ccc(OC)cc2)n1`, the RP-LC retention time amounted to 764 s.

Molecule `O=C(NCC(c1cccnc1)N1CCc2ccccc21)C(=O)Nc1ccc2c(c1)OCO2` (centres undefined) displayed an RP-LC retention time of 734 s.

`CCCN(CC(=O)N1CCc2sccc2C1COc1ccccc1OC)C(=O)C1CC1` (centres undefined) yielded an RP-LC retention time of 922 s.

In the case of `Cc1ccc(C(=O)N2CC(n3cc(COCC4CC4)nn3)C2)c(=O)[nH]1`, the RP-LC retention time was 595 s.

As to `Nc1nc(-c2ccccc2)nn1C(=O)c1ccccc1`, the RP-LC retention time was 904 s.

In turn, `Cc1ccc(CNC(=O)N2CCN(CCn3c(C(F)(F)F)nc4cccnc43)CC2)cc1` gave an RP-LC retention time of 661 s.

In turn, `COc1ccc2c(c1)C(O)(CC(=O)c1ccc(-c3ccc(Cl)cc3)o1)C(=O)N2` (centres undefined) had an RP-LC retention time of 797 s.

For the molecule `CCC(C(=O)NCCCN1CCCC1)n1nc(C)c2nn(-c3ccccc3)c(C)c2c1=O` (centres undefined), the RP-LC retention time amounted to 645 s.

With `CN1CCCc2cc(C(=O)NCc3ccc(F)cc3)sc21`, the RP-LC retention time was determined as 906 s.

In turn, `CCSC1=C(C#N)C(c2ccccc2Cl)C(C(=O)Nc2ccccc2C)=C(C)N1` (centres undefined) showed an RP-LC retention time of 862 s.

Consider `CCC1CCCCN1C(=O)c1cnc2nc(C)ccc2c1Nc1ccccc1OC` (centres undefined), for which the RP-LC retention time came to 661 s.

On to `COc1cccc(NC(=O)c2c(O)c3cccnc3n(-c3ccc(F)cc3)c2=O)c1`, for which the RP-LC retention time was determined as 1200 s.

In turn, `Cc1ccc(-c2ccc(-n3nc(C)c(S(=O)(=O)N4CCN(C(C)C)CC4)c3C)nn2)cc1C` displayed an RP-LC retention time of 785 s.

As to `CNc1nc(NCc2ccc(NC(=O)c3ccc(F)cc3)cc2)c2ccccc2n1`, the RP-LC retention time amounted to 692 s.

In turn, `CC(C)CCN(CC(=O)N1CCNCC1)C(=O)c1ccc(Br)cc1` returned an RP-LC retention time of 657 s.

`COc1cccc(CNC(=O)NCCc2nc3cccnc3n2C2CCCC2)c1` came in with an RP-LC retention time of 684 s.

`CCC(=O)NCC12CCC=C1N(C)C(=O)CC2` (centres undefined): the RP-LC retention time was found to be 616 s.

Take `COc1ccc(C(=O)c2cccc(N)c2)cc1OC`: the RP-LC retention time was found to be 630 s.

Consider `O=C(NCc1ccc2c(c1)OCO2)c1cn(-c2cc(N3CCCC3)ncn2)cn1`, for which the RP-LC retention time turned out to be 775 s.

As for `COCCn1cc(C(=O)Nc2ccc(N(C)C)cc2)c2nn(-c3ccccc3)c(=O)c-2c1`, the RP-LC retention time came out at 710 s.

Consider `O=C(Nc1nnc(C2=COCCO2)o1)C1CCN(S(=O)(=O)c2cccs2)CC1`, for which the RP-LC retention time was determined as 643 s.

The values above are taken from the METLIN SMRT retention time set (Domingo-Almenara et al. 2019).
